{"source": "patent US7521536B2", "about": "“Glutamate transporter associated protein” (The Johns Hopkins University School of Medicine, priority 1999, dated 2009)", "molecules": {"B1": {"name": "GTRAP3-18: glutamate transporter EAAC1 associated protein, 188 amino acids (SEQ ID NO:6), rat JWA protein homologue (protein)", "chain": "MDVNLAPLRAWDDFFPGSDRFARPDFRDISKWNNRVVSNLLYYQTNYLVVAAMMISVVGFLSPFNMILGGIIVVLVFTGFVWAAHNKDILRRMKKQYPTAFVMVVMLASYFLISMFGGVMVFVFGITFPLLLMFIHASLRLRNLKNKLENKMEGIGLKKTPMGIILDALEQQEDSINKFADYISKARE", "modifications": "Rattus"}}, "key": {"GTRAP3-18 [1]": {"system": "GTRAP3-18", "experiment": "intraventricular infusion of retinoic acid, cortical GTRAP3-18 and glutamate uptake", "type": "in vivo", "procedure": "To test this hypothesis in vivo, retinoic acid was infused intraventricularly (1-20 μM; 0-20 pmol/μL). […] This effect is specifically due to decreased EAAC1 -mediated transport because it was not altered by the glutamate transport inhibitor dihydrokainic acid, at a concentration that predominantly effects GLT-1 (Robinson et al. (1998)). […] Retinoic acid had no effect on glutamate transport by cells expressing GLT-1 or EAAT4."}, "EAAT4 [2]": {"system": "EAAT4", "experiment": "cerebellar glutamate uptake after intra-cisternal injection of HSV amplicon vectors", "type": "in vivo, rat", "conditions": "inhibitor of GLT-1 mediated glutamate transport"}, "GTRAP3-18 [3]": {"system": "GTRAP3-18", "experiment": "intraventricular GTRAP3-18 antisense oligomers, cortical glutamate uptake", "type": "in vivo", "procedure": "To examine modulation of EAAC1 by GTRAP3-18 in vivo, GTRAP3-18 antisense oligomers were administered intraventricularly. Sequences for the novel phosphodiester oligonucleotides used were: sense GTRAP3-18: 5′-GTGAACCTTGCCCGCTC-3′, antisense GTRAP3-18: 5′-GAGCGGGGCAAGGTTCAC-3′ Oligonucleotides (5 μg/μL), separately or in combination were administered intraventricularly over 3-11 days, by mini-osmotic pumps (Alza Corp., Palo Alto, Calif.) as described previously (Rothstein et al., (1994))."}, "GTRAP3-18 [4]": {"system": "GTRAP3-18", "experiment": "GTRAP3-18 antisense oligomers transfected into HEK293 cells", "type": "cell-based", "excerpt": "Western blot analyses and glutamate uptake assays reveal endogenous expression of EAAC1 and GTRAP3-18 protein in HEK cells, but no expression of other transporter subtypes, e.g., GLAST, GLT-1, or EAAT4. Antisense oligomers, targeted to the 5′-GTRAP3-18 transcript, were transfected into HEK293 cells."}, "EAAT4 [5]": {"system": "EAAT4", "experiment": "Na+-dependent glutamate uptake in EAAT4 expressing HEK cells transfected with PCTAIRE", "type": "cell-based", "procedure": "Transfection of EAAT4 expressing HEK cells with PCTAIRE results in diminished Na^+-dependent glutamate uptake. HEK cells and EAAT4 expressing HEK cells were transfected with 1.0 μg of pCMV PCTAIRE plasmid, and allowed to express for 48 hours. Cell monolayers were then washed with tissue buffer (50 mM Tris, 320 mM sucrose, pH 7.4). The cells were then incubated for 4 min at 37° C. with 1 mL of either sodium-(120 mM NaCl, 25 mM NaHCO3, 5 mM KCl, 2 mM CaCl2, 1 mM KH2PO4, 1 mM MgSO4, 10% glucose and 10 μM glutamate or choline-(120 mM choline-Cl, 25 mM Tris-HCl, 5 mM KCl, 2 mM CaCl2, 1 mM KH2PO4, 1 mM MgSO4, 10% glucose and 10 μM glutamate) containing buffer. Glutamate uptake assays were then performed using L-[^3H]-Glutamate in the presence and absence of Na^+. After rinsing, cells were lysed in 0.1 N NaOH and lysate radioactivity measured using a scintillation counter. Protein content was measured and glutamate uptake calculated as the difference between Na^+ containing and sodium free values per mg of protein.\nInhibition of Na^+-dependent glutamate uptake by PCTAIRE is reversible using the cdk2 inhibitor olomucine. HEK cells expressing EAAT4 were transfected with 1.0 μg of pCMV PCTAIRE plasmid as described above, and allowed to express for 48 hours. Prior to glutamate uptake assay, cells were treated with 100 μM olomucine for 30 minutes at 37° C. as indicated. […]"}, "EAAC1": {"target": "T1, EAAC1 (Rattus norvegicus, UniProt P51907)", "T1 construct": "For transient expression in HEK 293T cells, full-length EAAC1 cDNA was subcloned into the EcoR I/BamH I site; expressed in transfected cells; host or cells: HEK293 / HEK 293T, transient, pRK5", "T1 sequence (P51907 1-523)": "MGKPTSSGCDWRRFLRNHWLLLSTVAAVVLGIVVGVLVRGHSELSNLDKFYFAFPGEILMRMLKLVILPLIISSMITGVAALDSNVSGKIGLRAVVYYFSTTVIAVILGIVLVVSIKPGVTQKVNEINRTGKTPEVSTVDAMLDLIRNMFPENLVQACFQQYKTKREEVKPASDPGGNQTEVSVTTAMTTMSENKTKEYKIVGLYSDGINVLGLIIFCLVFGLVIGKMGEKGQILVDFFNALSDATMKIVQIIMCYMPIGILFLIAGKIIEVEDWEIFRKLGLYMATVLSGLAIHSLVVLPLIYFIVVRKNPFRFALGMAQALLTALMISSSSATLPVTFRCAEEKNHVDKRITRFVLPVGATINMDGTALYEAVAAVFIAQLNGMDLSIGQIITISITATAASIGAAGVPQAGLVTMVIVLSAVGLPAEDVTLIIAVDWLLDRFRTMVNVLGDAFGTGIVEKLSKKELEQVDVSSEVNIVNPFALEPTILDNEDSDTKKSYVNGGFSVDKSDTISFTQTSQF", "experiment": "sodium-dependent [3H]-glutamate transport in HEK293 cells co-expressing EAAC1 and GTRAP3-18", "type": "cell-based", "excerpt": "(§1) To test if GTRAP3-18 modulates EAAC1 function, sodium-dependent [^3H]-glutamate transport was studied in HEK293 cells co-expressing both proteins, 72 hrs after transfection (Rothstein et al. Neuron 16, 675-686 (1996); Lin et al., Neuron 20, 589-602 (1998)). Total glutamate transport progressively decreases with increasing GTRAP3-18 protein expression (FIG. 4). GTRAP3-18 negatively modulates EAAC1-mediated glutamate transport. GTRAP3-18 inhibited EAAC1-mediated transport, but had no effect on EAAT4 (n=6). The co-expression of GTRAP-3-18 has no effect on total EAAC1 protein expression. Analysis of HEK293 cells by confocal microscopy and surface biotinylation reveal no alteration in the membranous localization of EAAC1. Superoxide dismutase (SOD1) was used as a control. […] This effect is specific for EAAC1; co-expression of GTRAP3-18 with EAAT4 has no effect on transport activity. The inhibition of transport is not due to a decrease of EAAC1 protein level by the co-expression of GTRAP3-18, as quantitated by Western blotting. Similarly, the loss of EAAC1 activity is not due to altered protein trafficking; even at high levels of GTRAP3-18 expression, when little EAAC1-mediated transport is observed, EAAC1 surface expression is unaltered as determined by surface biotinylation and confocal microscopy.\nTo evaluate the biochemical nature of altered transport, kinetic analyses were performed with HEK293 cells co-expressing EAAC1 and GTRAP3-18. […] Similar results are observed with other cell lines (COS7 and C6 glioma)."}, "EAAT4 [6]": {"target": "T2, EAAT4 (Rattus norvegicus, UniProt O35921)", "T2 sequence (O35921 1-561)": "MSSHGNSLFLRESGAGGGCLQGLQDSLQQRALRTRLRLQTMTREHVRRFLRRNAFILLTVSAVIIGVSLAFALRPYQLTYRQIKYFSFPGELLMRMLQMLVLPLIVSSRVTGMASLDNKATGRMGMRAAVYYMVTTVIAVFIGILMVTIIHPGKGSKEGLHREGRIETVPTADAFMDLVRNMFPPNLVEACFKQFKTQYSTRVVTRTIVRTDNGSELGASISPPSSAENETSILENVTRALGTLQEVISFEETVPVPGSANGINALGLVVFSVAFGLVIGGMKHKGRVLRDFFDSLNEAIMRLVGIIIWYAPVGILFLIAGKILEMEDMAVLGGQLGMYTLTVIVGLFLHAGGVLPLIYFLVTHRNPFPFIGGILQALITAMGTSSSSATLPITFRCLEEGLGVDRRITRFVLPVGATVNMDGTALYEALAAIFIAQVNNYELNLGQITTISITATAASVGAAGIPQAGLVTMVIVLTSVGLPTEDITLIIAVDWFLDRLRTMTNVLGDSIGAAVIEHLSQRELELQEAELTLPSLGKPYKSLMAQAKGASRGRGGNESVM", "experiment": "sodium-dependent [3H]-glutamate transport in HEK293 cells co-expressing EAAT4 and GTRAP3-18", "type": "cell-based", "excerpt": "as §1"}, "GST-EAAC1": {"target": "T3, GST-EAAC1 (Rattus norvegicus, UniProt P51907)", "T3 construct": "made in house; BL21 is described for GST-EAAT4", "T3 sequence (P51907 1-523)": "T1 sequence (P51907 1-523)", "experiment": "in vitro cell-free binding to immobilized GST-EAAC1", "conditions": "[35S]-labeled protein; not to GST alone", "procedure": "The interaction of GTRAP3-18 with EAAC1 was examined using in vitro and in vivo methods. For in vitro cell-free binding, EAAC1 was expressed as a fusion protein with glutathione S-transferase (GST), and GTRAP3-18 was produced and labeled with [^35S]-methionine by in vitro transcription and translation. Purified GST or GST-EAAC1 fusion proteins immobilized on glutathione-Sepharose were incubated with [^35S]-labeled GTRAP3-18 protein."}, "[7]": {"conditions": "antisense 50-100 ng/day intraventricular for 7-10 days, retinoic acid 2.5 μM"}, "[8]": {"conditions": "eleven days of intraventricular treatment"}}}
{"molecule": "CC(C)[C@H]1CN[C@H](C(=O)O)[C@H]1CC(=O)O", "note": "[Dihydrokainic acid, reference compound]", "values": [{"measurement": "effect of inhibitor on the retinoic acid-induced decrease of glutamate uptake", "setting": "GTRAP3-18 [1]; concentration that predominantly effects GLT-1", "value": "not altered"}, {"measurement": "effect on cerebellar glutamate uptake", "setting": "EAAT4 [2]", "value": "no effect"}, {"measurement": "effect of inhibitor on the antisense-induced increase in cortical glutamate uptake", "setting": "GTRAP3-18 [3]; in vivo", "value": "not altered"}]}
{"molecule": "5′-GAGCGGGGCAAGGTTCAC-3′ (DNA, all phosphodiester, methylation of C not given here) [antisense GTRAP3-18, phosphodiester oligonucleotide antisense to the 5′-GTRAP3-18 transcript]", "values": [{"measurement": "EAAC1 protein level", "setting": "GTRAP3-18 [4]", "value": "not affected"}, {"measurement": "endogenous GTRAP3-18 protein level", "setting": "GTRAP3-18 [4]", "value": "reduced"}, {"measurement": "glutamate transport activity", "setting": "GTRAP3-18 [4]", "value": "elevated"}, {"measurement": "inhibition of glutamate transport seen with retinoic acid treatment", "setting": "GTRAP3-18 [1]; [7]", "value": "blocks"}, {"measurement": "retinoic acid induction of GTRAP3-18", "setting": "GTRAP3-18 [1]; [7]", "value": "blocks"}, {"measurement": "Vmax of DHK-insensitive cortical glutamate uptake", "setting": "GTRAP3-18 [3]; antisense-treated animals, control 1.08", "value": 1.08, "unit": "nmol/min/mg protein"}, {"measurement": "Km", "setting": "GTRAP3-18 [3]; antisense-treated animals, control Km=19.7 μM, read-out: Km of DHK-insensitive cortical glutamate uptake", "value": 10, "unit": "µM"}, {"measurement": "GTRAP3-18 protein level", "setting": "GTRAP3-18 [3]; [8]", "value": "reduction"}, {"measurement": "cortical glutamate uptake", "setting": "GTRAP3-18 [3]; [8]", "value": "significant increase"}]}
{"molecule": "Cn1cnc2c(NCc3ccccc3)nc(NCCO)nc21", "note": "[olomucine, reference compound]", "values": [{"measurement": "inhibition of Na+-dependent glutamate uptake by PCTAIRE", "setting": "EAAT4 [5]; 100 μM for 30 minutes at 37° C. before uptake assay", "value": "reversible"}]}
{"molecule": "5′-GTGAACCTTGCCCGCTC-3′ (chemistry not fully specified) [sense GTRAP3-18, sense control phosphodiester oligonucleotide, reference compound]", "values": [{"measurement": "cortical glutamate uptake", "setting": "GTRAP3-18 [3]; [8]", "value": "not altered"}]}
{"molecule": "PCTAIRE: serine/threonine kinase related to the cyclin-dependent kinase 2 (cdk2) family, interacts with amino terminus of EAAT4", "values": [{"measurement": "Na+-dependent glutamate uptake", "setting": "EAAT4 [5]; 1.0 μg pCMV PCTAIRE plasmid, 48 hours", "value": "diminished"}]}
{"molecule": "B1", "values": [{"measurement": "Vmax of glutamate transport", "setting": "EAAC1; EAAC1 and GTRAP3-18 co-expressing cells, EAAC1 only 1.02", "value": 0.99, "unit": "nmol/min/mg protein"}, {"measurement": "Km", "setting": "EAAC1; EAAC1 and GTRAP3-18 co-expressing cells, EAAC1 only Km=9 μM, n=4", "value": 40, "unit": "µM"}, {"measurement": "effect on EAAC1-mediated glutamate transport", "setting": "EAAC1; HEK293 cells, 72 hrs after transfection, n=6", "value": "inhibited"}, {"measurement": "decrease in affinity (Eadie-Scatchard plot of glutamate transport)", "setting": "EAAC1; transfected HEK293 cells, n=4", "value": "4-10 fold"}, {"measurement": "effect on EAAT4 glutamate transport", "setting": "EAAT4 [6]", "value": "no effect"}, {"measurement": "binding to immobilized GST-EAAC1", "setting": "GST-EAAC1", "value": "specifically binds"}]}
